# Results from patent US20200062719A1, “Application of Imidazopyridine Derivatives in Regenerative Medicine” (University of Heidelberg, priority 2018, published 2020).
# Test system: Oct4
# Assay: Luciferase reporter assay in NCCIT-Oct4 cells
# Type: cell-based, human
# Details: histone demethylase inhibitors, 48 h
# Protocol: The ability of the lead compound to induce Oct4 at translational level was tested in a luciferase reporter cell line in human embryonic carcinoma NCCIT cells driven by Oct4 response elements (NCCIT-Oct4). The compound lead to a nearly 10-fold induction of Oct4 at 10 nM compared to untreated cells (FIG. 1B). Consequently, the lead compound was named “Oct4 inducing compound 3” (O4I3).
# Luciferase reporter assay was performed using Beatle Juice Kit (PJK, Germany) according to the manufacturer's instruction. NCCIT-Oct and NCCIT-Nanog reporter cells were plated into a 24-well plate (100,000 cells/well) for 24 h. Cells were treated with compounds as indicated and harvested with luciferase lysis buffer (25 mM Tris phosphate buffer pH=7.8, 4 mM EGTA, 1% Triton X-100, 10% glycerol and 2 mM fresh DTT, filtered through 0.45 μm sterile filter) at 37° C. for 15 min. The protein concentration was determined by Bradford assay (Sigma, Germany). 100 μL reaction mixture containing luciferin and ATP was added to 20 μL cell lysis in a white plate (Gibco, Germany), incubated for 5 min and measured by a luminometer plate-reader. The activity was determined as percent luminous intensity of treated cells over control cells from at least five-independent experiments.
row,Structure (SMILES),induction of OCT4 expression in NCCIT-OCT4 reporter cell line
1,CC(C)c1c(-c2ccccc2)[nH]c2c(C#N)cnn2c1=O [CPI-455],3 fold
2,"Clc1ccc(N/N=C(\c2ccccc2)c2ccccn2)nc1 [JIB-04, reference compound]",5 fold
3,CN(C)NC(=O)CCC(=O)O [daminozide],not
4,CCOC(=O)CCNc1cc(N2CCc3ccccc3CC2)nc(-c2ccccn2)n1 [GSK-J4],not

# Test system: human fibroblasts
# Assay: qRT-PCR of reprogramming associated genes in human fibroblasts
# Type: cell-based
# Design: expression of OCT4, SOX2, and E-Cadherin in HFs: dose or concentration left out as unconfirmed
# Details: JIB-04 treated fibroblasts
# Protocol: Analyzing the effects of O4I3 on human fibroblasts, the activation of reprogramming associated genes, including an about 10-fold induction of Oct4, Nanog and Lin28, and an about 100-fold increase of Sox2 and E-Cadherin mRNA levels was detected. In particular, expression of several essential genes for reprogramming is equal to those in pluripotent stem cells, such as Esrrb, FGF2 and Sall4 (FIG. 12).
# Quantitative reverse-transcription real-time-PCR was performed using a Light Cycler 96 (Roche, Germany) following the manufacturer's protocol. Briefly, total RNA was isolated from cells using TRIzol (Qiagen, Germany) or NucleoSpin®RNA Plus (Macherey-Nagel, Germany). The same amount of RNA was used to reverse-transcriptional synthesize cDNA by using random primers ProtoScript® First Strand cDNA Synthesis Kit (NEB, Germany). qPCR was performed using the SYBR Green PCR master mix (qPCRBIO SyGreen Mix Lo-Rox, Nippon Genetics, Germany) and the primer pairs indicated below (MWG, Eurofins, Germany). Actin was used as an endogenous control. Data were normalized to the value of untreated cells showing the mean±SD of quadruplicates and are representative of at least three independent experiments.
row,Structure (SMILES),"expression of OCT4, SOX2, and E-Cadherin in HFs"
1,"Clc1ccc(N/N=C(\c2ccccc2)c2ccccn2)nc1 [JIB-04, reference compound]",induction

# Test system: OCT4-promoter
# Assay: Luciferase reporter assay in HEK-OCT4 cells
# Type: cell-based
# Details: not given
# Protocol: In an effort to find such chemical structures able to induce pluripotency, a high-throughput screening (HTS) was performed. The screen was based on cellular luciferase reporter assays under the control of the promoter activity of a pluripotency-associated transcription factor (Oct4) in HEK293 cells.
# The inventors adopted Hantzsch thiazole synthesis (FIG. 20A) and produced a series of new O4I2-ester derivatives (FIG. 20B). Their activities were measured in three luciferase report cell lines, namely HEK-OCT4, driven by the activation of OCT4-promoter, and NCCIT-OCT4 and NCCIT-NANOG, whose intensities are controlled by endogenous OCT4 and NANOG respectively. […] Carboxylesterase 1 (CES1) is an enzyme majorly contributing to ester-to-acid conversion.
row,Structure (SMILES),activity in HEK-OCT4 cells
1,"O=C(O)c1csc(Nc2ccc(Cl)cc2)n1 [O4I2-COON, 2-(4-chlorophenylamino)thiazole-4-carboxylic acid]",inactive

# Test system: promoter of Oct4
# Assay: ChIP-qPCR of H3K4Me3 at the promoter of Oct4 in reprogramming-resistant fibroblasts
# Type: cell-based, human
# Details: HF4, in combination with OSKM overexpression
# Text: The importance of active tri-methylation of histone H3 lysine 4 (H3K4Me3) in promoting transcription factors binding to an ‘open’ chromatin state and thereby initiation of reprogramming is known in the art. In good agreement, the inventors found the abundance of H3K4Me3 in O4I3-treated reprogramming-resistant fibroblasts by immunostaining (FIG. 14) and immunoblotting (FIG. 5B). To directly study if O4I3 facilitated the binding of H3K4Me3 to the promoter of Oct4, a CHIP-qPCR experiment was performed.
# In reprogramming-resistant HF4, the level of H3K4Me3 at the promoter of OCT4 was increased by OSKM, but was still nearly 1,000-fold lower than that in PSCs (FIG. 19A). […] However, a clear influence on H3K4 methylation was not observed in the presence of KDM5B-, KDM5C-, or KDM5D-siRNA (FIG. 19A). […] Indeed, the reprogramming efficiency is negatively correlated with the expression of KDM5A in 11 HFs (FIG. 19D). Moreover, KDM5A siRNA increased the global level of H3K4Me3 in a dose-dependent manner (FIG. 19E). Of note, the alternation in the occupation of H3K27Me3 at the promoter of OCT4 was more refractory to chemical inhibition or genetic repression of KDM5s in the inventors' experiments (FIG. 19B). […]
row,Structure (SMILES),levels of H3K4Me3 at the promoter of OCT4
1,"Clc1ccc(N/N=C(\c2ccccc2)c2ccccn2)nc1 [JIB-04, reference compound]",significantly elevated

# Test system: Oct4
# Assay: Luciferase reporter assay in NCCIT-Oct4 cells
# Type: cell-based, human
# Details: 100 nM, NCCIT-Oct4 cells
row,Structure (SMILES),Oct4 inducing activity as compared to the activity of O4I3 (101)
1,"Cc1ccc2nc(-c3ccc(Br)cc3)cn2c1 [Compound 104, 2-(4-bromophenyl)-6-methyl-imidazo[1,2-a]pyridine]",increased the activity
2,"Cc1ccc2nc(-c3ccc(Cl)cc3)cn2c1 [Compound 103, 2-(4-chlorophenyl)-6-methyl-imidazo[1,2-a]pyridine]",increased the activity
3,"COc1ccc(-c2cn3cc(C)ccc3n2)cc1 [Compound 106, 2-(4-methoxyphenyl)-6-methyl-imidazo[1,2-a]pyridine]",significantly reduced the induction
4,"Cc1ccc2nc(-c3ccc(F)cc3)cn2c1 [Compound 102, 2-(4-fluorophenyl)-6-methyl-imidazo[1,2-a]pyridine]",increased the activity
5,"Cc1ccc2nc(-c3ccc(C#N)cc3)cn2c1 [Compound 108, 4-(6-methylimidazo[1,2-a]pyridin-2-yl)benzonitrile]",significantly reduced the induction
6,"Cc1ccc2nc(-c3ccc(O)cc3)cn2c1 [Compound 107, 4-(6-methylimidazo[1,2-a]pyridin-2-yl)phenol]",significantly reduced the induction
7,"Cc1ccc2nc(-c3ccccc3)cn2c1 [Compound 109, 6-methyl-2-phenyl-imidazo[1,2-a]pyridine]",not affected
8,"Cc1ccc2nc(-c3ccc([N+](=O)[O-])cc3)cn2c1 [Compound 105, 6-methyl-2-(4-nitrophenyl)imidazo[1,2-a]pyridine]",significantly reduced the induction
